Positions of bridges follow the written chain, without caps; N, C: chain ends. Non-standard residues stand in square brackets, D forms with d. Residues, ends and D or L forms follow the SMILES beside them. *: point of attachment. X1 = CC[C@H](C)CCCCC(=O)*; Dab = NCC[C@H](N)C(=O)O
Tests used:
[1] = tested on: human renal tubular cells; settings: cited from earlier work
From the text: In recent years, PB‐AKI has been increasingly reported, which is a problem that should not be ignored.[13], [17], [28] Studies have shown that the main features of PB‐AKI include acute renal tubular injury and reduced Ccr.[25] In a mouse study, PB distribution in renal tissue after intravenous administration was detected using PB‐specific monoclonal antibody immunostaining and was mainly concentrated in the renal cortex, especially in the proximal tubu ...

[2] = Steady-state serum concentrations of PB (PB1 + PB2) by UHPLC-MS/MS in critically ill patients; assay type: in vivo, human; settings: median (IQR); for Estimated AUC0–24: double the AUC0-12 by linear trapezoidal approximation from three samples
Protocol: (§1) Inclusion criteria included age ≥ 18 years and intravenous administration of PB for more than 3 days. Exclusion criteria included PB administration of a daily dose of 1.5–2.5 mg/kg <3 days, underlying chronic renal insufficiency or existing AKI, or renal replacement therapy already performed. The loading dose and maintenance dose of PB for each patient depended on the doctors' decisions at a daily dose of 1.5–2.5 mg/kg in evenly two doses. PB was administered as an intermittent infusion over approximately 1 h. Patients were divided into an AKI group and a non‐AKI group according to whether they developed new AKI after PB application according to Kidney Disease Improving Global Outcomes (KDIGO) diagnostic criteria.[20] An increase in serum creatinine (Scr) to 50% of the base value within 7 days or an increase in Scr of more than 26.5 μmol/L within 2 days or oliguria is diagnosed as AKI according to KDIGO's diagnostic criteria.
The estimated area under the plasma concentration–time curve from 0 to 24 h (AUC0–24) was the main PK variable for PB. From each patient, three blood samples were taken after at least […] doses of PB: blood sample A (C max) was collected within 30 min after the end of intravenous infusion of PB for the peak concentration, blood sample B (C 1/2) was a mid‐dose blood sample taken 50% of the way through a dosing interval, and blood sample C (C min) was a pre‐dose concentration taken at the end of a dosing interval (within 30 min of the next dose, see Figure 1). The serum was separated and stored at −70°C until assay.
The PB1 and PB2 serum concentrations were measured using a validated ultrahigh performance liquid chromatography–tandem mass spectrometry assay method.[21] The C max, C 1/2, and C min of steady‐state (after at least 5 doses) PB1 and PB2 components were determined according to the above method: Cmax=Cmax−PB1+Cmax−PB2, C1/2=C1/2−PB1+C1/2−PB2, Cmin=Cmin−PB1+Cmin−PB2,
The estimated area under the concentration–time curve from 0 to 12 h (AUC0–12) was calculated using the linear trapezoidal approximation[22] and the estimated AUC0–24 from 0 to 24 h (AUC0–24) was calculated as double the AUC0–12, [23] assuming a steady state (after at least 4–5 doses) when PB was administered every 12 h.

critically ill patients [3] = test: Occurrence of PB-associated acute kidney injury (KDIGO criteria) after intravenous PB; assay type: in vivo, human; settings: critically ill patients without basic renal insufficiency, 26/52, PB i.v. more than 3 days
Protocol: as §1

critically ill patients [4] = test: ROC curve analysis of PB PK parameters for predicting PB-AKI; design: species or system human; settings: best cut point by maximised index
From the text: Data are reported as categorical variables or numerical variables. Continuous normally distributed numerical variables are expressed as the means ± standard deviations, and continuous non‐normally distributed variables are expressed as the median (interquartile range). ANOVA test was used to compare the continuous normally distributed variables, Kruskal–Wallis rank sum test was used to compare the continuous non‐normally distributed variables, and Chi‐square test was used to compare the rates. The sensitivity and specificity of C 1/2, C min, and estimated AUC0–24 for the development of AKI were determined using ROC curve analysis. AKI occurrence as the outcome, to maximize the Jorden index to find the best entry point. Statistical significance was defined as p < .05. SPSS version 22.0 (SPSS Inc.) was used for all statistical calculations.

critically ill patients [5] = settings: previous clinical studies; cited from earlier work
Protocol: Estimated AUC0–24 is a predictor for PB‐AKI, and an estimated AUC0–24 ≥ 97.72 mg·h/L was identified as a significant breakpoint for PB‐AKI.

| Molecule | Concentration of polymyxin in renal tubular cells relative to extracellular [1] | Estimated AUC0–24 ([2]; AKI group (n = 26)) | level at 6 h ([2]; human, iv, AKI group (n = 26), 50% of the way through a 12 h dosing interval, serum, sum PB1+PB2, UHPLC-MS/MS, read-out: C 1/2, middle serum concentration through a dosing interval) | Cmax ([2]; human, iv, AKI group (n = 26), within 30 min after end of 1 h i.v. infusion, serum, sum PB1+PB2, UHPLC-MS/MS, read-out: C max, peak serum concentration of PB) | Estimated AUC0–24 ([2]; non-AKI group (n = 26)) | Estimated AUC0–24 ([2]; total patients (N = 52)) | C max, peak serum concentration of PB ([2]; total patients (N = 52), within 30 min after end of 1 h i.v. infusion, daily dose 1.5-2.5 mg/kg in two doses, serum, sum PB1+PB2, UHPLC-MS/MS) | Incidence of AKI caused by intravenous PB (critically ill patients [3]) | Cutoff value for estimated AUC0–24 predicting PB-AKI (critically ill patients [4]) | Cutoff value for C 1/2 predicting PB-AKI (critically ill patients [4]; p = .003) | Estimated AUC0–24 that predicts nephrotoxicity of PB treatment (critically ill patients [5]) |
| --- | --- | --- | --- | --- | --- | --- | --- | --- | --- | --- | --- |
| polymyxin | 4760 times | – | – | – | – | – | – | – | – | – | – |
| CC[C@H](C)CCCCC(=O)N[C@@H](CCN)C(=O)N[C@H](C(=O)N[C@@H](CCN)C(=O)N[C@H]1CCNC(=O)[C@H]([C@@H](C)O)NC(=O)[C@H](CCN)NC(=O)[C@H](CCN)NC(=O)[C@H](CC(C)C)NC(=O)[C@@H](Cc2ccccc2)NC(=O)[C@H](CCN)NC1=O)[C@@H](C)O [PB, polymyxin B] (X1-[Dab]T[Dab][Dab][Dab][dF]L[Dab][Dab]T; lactam 4-C) | – | 102.37 (86.18–120.61) mg·h/L | 3940 ng/mL | 6800 ng/mL | 85.5 (69.16–97.55) mg·h/L | 92.07 (77.11–118.02) mg·h/L | 6.69 (5.56–8.36) mg/L | 50% | 97.72 mg·h/L | 3.375 mg/L | > 100 mg·h/L |
